Measured values as given in patent publication US12060349B2, “Glucosylceramide synthase inhibitors” (Genzyme Corporation, priority 2012, dated 2024).
Like-named read-outs stand apart in the source and are kept apart here.

What was measured:
[1] = tested on: GM3 expression on the cell surface, B16 mouse melanoma cells; assay: cell based phenotypic assay, cell surface GM3 by antibody mediated immunofluorescence, B16 (GM3 B16 IC50); conditions: 50% inhibition of GM3 expression on the cell surface
Outline: (§1)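 B16 mouse and C32 human melanoma cells; cell-surface GM3 measured by antibody-mediated immunofluorescence, giving IC50.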

B16 mouse melanoma cells = assay: cell viability in the B16 cell-based assay (Viability, B16 IC50)
Outline: (§2)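 Both lines undergo the phenotypic GM3 assay, and viability is recorded from that same cell-based run.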

[2] = tested on: GM3 expression on the cell surface, C32 human melanoma cells; assay: cell based phenotypic assay, cell surface GM3 by antibody mediated immunofluorescence, C32 (GM3 C32 IC50); conditions: 50% inhibition of GM3 expression on the cell surface
Outline: as §1

C32 human melanoma cells = assay: cell viability in the C32 cell-based assay (Viability, C32 IC50); conditions: concentration causing 50% cell death, values greater than 10 represent a lack of cell death
Outline: as §2

[3] = target: T1, glucosylceramide synthase (Homo sapiens, UniProt Q16739); assay: microsomal assay measuring conversion of ceramide to glucosylceramide by HPLC (GCS IC50); type: biochemical; conditions: concentration causing 50% inhibition of glucosylceramide synthase activity
T1 construct: Microsomes were isolated from A375 human melanoma cells; endogenous in cells; host or cells: A375 human melanoma cells (microsomal fraction, 100,000 g pellet)
T1 sequence (Q16739 1-394): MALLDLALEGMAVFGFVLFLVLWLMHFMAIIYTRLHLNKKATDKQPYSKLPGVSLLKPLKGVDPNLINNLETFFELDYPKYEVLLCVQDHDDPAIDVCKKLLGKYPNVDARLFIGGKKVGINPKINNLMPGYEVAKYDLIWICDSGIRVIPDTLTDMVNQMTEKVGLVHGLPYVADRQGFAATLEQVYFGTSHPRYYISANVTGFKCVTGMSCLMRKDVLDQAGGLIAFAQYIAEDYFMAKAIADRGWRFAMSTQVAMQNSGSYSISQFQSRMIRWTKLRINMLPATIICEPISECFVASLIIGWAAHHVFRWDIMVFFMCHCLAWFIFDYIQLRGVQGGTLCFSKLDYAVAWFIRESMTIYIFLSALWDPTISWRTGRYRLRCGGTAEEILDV
Outline: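 Microsomal preparation assayed for glucosylceramide synthase by direct HPLC measurement of ceramide conversion to glucosylceramide. GCS IC50 is the compound concentration giving 50% inhibition of enzyme activity.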

[4] = B16 mouse melanoma cells, read-out: GM3 B16 IC50
[5] = Mus musculus, B16, B16 cells, concentration causing 50% cell death, values greater than 10 represent a lack of cell death, read-out: Viability, B16 IC50
[6] = C32 human melanoma cells, read-out: GM3 C32 IC50
[7] = C32 cells, read-out: Viability, C32 IC50
[8] = Mus musculus, read-out: GM3 B16 IC50, B16 mouse melanoma cells
[9] = Mus musculus, B16, read-out: Viability, B16 IC50
[10] = Homo sapiens, read-out: GM3 C32 IC50, C32 human melanoma cells
[11] = Homo sapiens, C32, read-out: Viability, C32 IC50, C32 cells
[12] = Mus musculus, B16 mouse melanoma cells, read-out: GM3 B16 IC50
[13] = Homo sapiens, C32 human melanoma cells, read-out: GM3 C32 IC50
[14] = Homo sapiens, C32, C32 cells, read-out: Viability, C32 IC50

IC50 [1, 12] [nM] | IC50 [2, 13] [nM] | Molecule | IC50 [1, 4] [nM] | IC50 (B16 mouse melanoma cells; [5]) [nM] | IC50 [2, 6] [nM] | IC50 (C32 human melanoma cells; [7]) [nM] | IC50 [3] [nM] | IC50 [1, 8] [nM] | IC50 (B16 mouse melanoma cells; [9]) [nM] | IC50 [2, 10] [nM] | IC50 (C32 human melanoma cells; [11]) [nM] | IC50 (B16 mouse melanoma cells; B16 cells, concentration causing 50% cell death, values greater than 10 represent a lack of cell death, read-out: Viability, B16 IC50) [nM] | IC50 (C32 human melanoma cells; [14]) [nM]
– | – | CCC1(NC(=O)NC2(c3ccc(-c4ccc(COCCOC)cc4)cc3)CC2)CN2CCC1CC2 (single isomer, unassigned) [Example 208, 1-(3-Ethylquinuclidin-3-yl)-3-(1-(4′-((2-methoxyethoxy)methyl)-[1,1′-biphenyl]-4-yl)cyclopropyl)urea] | 988 | ≥ 10000 | 73.9 | ≥ 10000 | 2710 | – | – | – | – | – | –
– | – | CC(C)(NC(=O)OC1CN2CCC1CC2)c1ccc(-c2ccc(S(=O)(=O)CC3CC3)cc2)cc1 (centres unmarked) [Example 238, Quinuclidin-3-yl (2-(4′-((cyclopropylmethyl)sulfonyl)-[1,1′-biphenyl]-4-yl)propan-2-yl)carbamate] | – | – | – | – | 15.4 | 50.1 | ≥ 10000 | 4.45 | 1000 | – | –
– | – | COCCOc1cccc(-c2ccc(C(C)(C)NC(=O)OC3CN4CCC3CC4)cc2)c1 (centres unmarked) [Example 167, Quinuclidin-3-yl (2-(3′-(2-methoxyethoxy)-[1,1′-biphenyl]-4-yl)propan-2-yl)carbamate] | – | – | – | – | 10.4 | 109 | ≥ 10000 | 5.31 | 1000 | – | –
– | – | 4-([1,1′-Biphenyl]-3-yl)-3-methyl-N-(4-methyl-1-azabicyclo[3.2.2]nonan-4-yl)piperazine-1-carboxamide [Example 32] | 462 | – | 46.5 | 3160 | 544 | – | – | – | – | 7290 | –
343 | 2.83 | CC1(NC(=O)C2(F)CCN(c3ccc(Oc4ccc(F)cc4)nn3)CC2)CCN2CCC1CC2 (centres unmarked) [Example 134, 4-Fluoro-1-(6-(4-fluorophenoxy)pyridazin-3-yl)-N-(4-methyl-1-azabicyclo[3.2.2]nonan-4-yl)piperidine-4-carboxamide] | – | ≥ 10000 | – | – | 14.5 | – | – | – | – | – | 1000
1930 | 16.5 | CC1CN(C(=O)OC2CCN3CCC2CC3)CCN1c1nccc(-c2ccccc2)n1 (centres unmarked) [Example 154, 1-Azabicyclo[3.2.2]nonan-4-yl 3-methyl-4-(4-phenylpyrimidin-2-yl)piperazine-1-carboxylate] | – | 2840 | – | – | 57 | – | – | – | – | – | 1000
106 | 0.569 | CC1(NC(=O)C2(F)CCN(c3cncc(Oc4ccc(F)cc4)c3)CC2)CCN2CCC1CC2 (centres unmarked) [Example 127, 4-Fluoro-1-(5-(4-fluorophenoxy)pyridin-3-yl)-N-(4-methyl-1-azabicyclo[3.2.2]nonan-4-yl)piperidine-4-carboxamide] | – | 6980 | – | – | 2.27 | – | – | – | – | – | 316
654 | 3.4 | CC1(NC(=O)C2(F)CCN(c3ncnc(OCc4ccc(F)cc4)n3)CC2)CCN2CCC1CC2 (centres unmarked) [Example 128, 4-Fluoro-1-(4-((4-fluorobenzyl)oxy)-1,3,5-triazin-2-yl)-N-(4-methyl-1-azabicyclo[3.2.2]nonan-4-yl)piperidine-4-carboxamide] | – | ≥ 10000 | – | – | 19.8 | – | – | – | – | – | 1000
– | – | CC(C)(NC(=O)OC1CN2CCC1CC2)c1cccc(Oc2cccc(C(=O)N3CCOCC3)c2)c1 (centres unmarked) [Example 279, Quinuclidin-3-yl 2-(3-(3-(morpholine-4-carbonyl)phenoxy)phenyl)propan-2-ylcarbamate] | – | – | – | – | 4330 | 3920 | ≥ 10000 | 217 | 3160 | – | –
1370 | 13.2 | CNC(=O)c1cccc(Oc2cccc(C(C)(C)NC(=O)NC3(C)CCN4CCC3CC4)c2)c1 (centres unmarked) [Example 297, N-Methyl-3-(3-(2-(3-(4-methyl-1-aza-bicyclo[3.2.2]nonan-4-yl)ureido)propan-2-yl)phenoxy)benzamide] | – | ≥ 10000 | – | – | 10.2 | – | – | – | – | – | 1000
96 | 1 | C[C@@H]1CN(C(=O)NC2(C)CCN3CCC2CC3)C[C@H](C)N1c1nccc(-c2ccccc2)n1 (relative stereo) [Example 147, cis-3,5-Dimethyl-N-(4-methyl-1-azabicyclo[3.2.2]nonan-4-yl)-4-(4-phenylpyrimidin-2-yl)piperazine-1-carboxamide] | – | 3510 | – | – | 5.45 | – | – | – | – | – | 1000
– | – | CC(C)(C)CCS(=O)(=O)c1ccc(-c2ccc(C(C)(C)NC(=O)OC3CN4CCC3CC4)cc2)cc1 (centres unmarked) [Example 245, Quinuclidin-3-yl (2-(4′-((3,3-dimethylbutyl)sulfonyl)-[1,1′-biphenyl]-4-yl)propan-2-yl)carbamate] | – | – | – | – | 1.85 | 66.3 | 6740 | 0.716 | 316 | – | –
– | – | COCC1(CS(=O)(=O)c2ccc(-c3ccc(C(C)(C)NC(=O)OC4CN5CCC4CC5)cc3)cc2)CC1 (centres unmarked) [Example 249, Quinuclidin-3-yl (2-(4′-(((1-(methoxymethyl)cyclopropyl)methyl)sulfonyl)-[1,1′-biphenyl]-4-yl)propan-2-yl)carbamate] | – | – | – | – | 53.5 | 247 | ≥ 10000 | 5.82 | 2150 | – | –
92.9 | 0.258 | COC1(C(=O)NC2(C)CCN3CCC2CC3)CCN(c2ncc(F)c(-c3ccc(OCCF)cc3)n2)CC1 (centres unmarked) [Example 102, 1-(5-Fluoro-4-(4-(2-fluoroethoxy)phenyl)pyrimidin-2-yl)-4-methoxy-N-(4-methyl-1-azabicyclo[3.2.2]nonan-4-yl)piperidine-4-carboxamide] | – | 2850 | – | – | 1.03 | – | – | – | – | – | 100
14.4 | 0.0964 | CC1(NC(=O)C2(F)CCN(c3nccc(-c4ccc(F)cc4)n3)CC2)CCN2CCC1CC2 (centres unmarked) [Example 94, 4-Fluoro-1-(4-(4-fluorophenyl)pyrimidin-2-yl)-N-(4-methyl-1-azabicyclo[3.2.2]nonan-4-yl)piperidine-4-carboxamide] | – | 2100 | – | – | 0.736 | – | – | – | – | – | 46.4
– | – | CN(C)C(=O)c1ccc(Oc2ccc(C(C)(C)NC(=O)NC3(C)CCN4CCC3CC4)cc2)cc1 (centres unmarked) [Example 285, N,N-Dimethyl-4-(4-(2-(3-(4-methyl-1-azabicyclo[3.2.2]nonan-4-yl)ureido)propan-2-yl)phenoxy)benzamide] | 725 | ≥ 10000 | 6.48 | 1000 | 16.3 | – | – | – | – | – | –

Molecule | IC50 [1, 12] [nM] | IC50 [2, 13] [nM] | IC50 [1, 4] [nM] | IC50 (B16 mouse melanoma cells; [5]) [nM] | IC50 [2, 6] [nM] | IC50 (C32 human melanoma cells; [7]) [nM] | IC50 [3] [nM] | IC50 [1, 8] [nM] | IC50 (B16 mouse melanoma cells; [9]) [nM] | IC50 [2, 10] [nM] | IC50 (C32 human melanoma cells; [11]) [nM] | IC50 (B16 mouse melanoma cells; B16 cells, concentration causing 50% cell death, values greater than 10 represent a lack of cell death, read-out: Viability, B16 IC50) [nM] | IC50 (C32 human melanoma cells; [14]) [nM]
CN(C)C(=O)c1ccc(Oc2ccc(C(C)(C)NC(=O)NC3(C)CN4CCC3CC4)cc2)cc1 (centres unmarked) [Example 284, N,N-Dimethyl-4-(4-(2-(3-(3-methylquinuclidin-3-yl)ureido)propan-2-yl)phenoxy)benzamide] | 3780 | 60.7 | – | ≥ 10000 | – | – | 201 | – | – | – | – | – | ≥ 10000
CNC(=O)c1ccc(Oc2ccc(C(C)(C)NC(=O)NC3(C)CN4CCC3CC4)cc2)cc1 (centres unmarked) [Example 293, N-Methyl-4-(4-(2-(3-(3-methylquinuclidin-3-yl)ureido)propan-2-yl)phenoxy)benzamide] | 5370 | 46 | – | ≥ 10000 | – | – | 186 | – | – | – | – | – | 1000
CCC1(NC(=O)NC2(c3ccc(-c4ccc(CCCOC)cc4)cc3)CC2)CN2CCC1CC2 (centres unmarked) [Example 215, 1-(3-Ethylquinuclidin-3-yl)-3-(1-(4′-(3-methoxypropyl)-[1,1′-biphenyl]-4-yl)cyclopropyl)urea] | 16.2 | 0.542 | – | 7550 | – | – | 2.48 | – | – | – | – | – | ≥ 10000
